These results are taken from patent US20200247800A1, “SUBSTITUTED BICYCLIC HETEROCYCLIC COMPOUNDS AS NADPH OXIDASE INHIBITORS” (Glenmark Pharmaceuticals S.A., priority 2017, published 2020).

pIC50: −log10 of the molar value.

The target in the assay is T1, human NOX4 (Homo sapiens, UniProt Q9NPH5).
T1 construct: expressed in transfected cells; membrane fraction used
T1 sequence (Q9NPH5 1-578): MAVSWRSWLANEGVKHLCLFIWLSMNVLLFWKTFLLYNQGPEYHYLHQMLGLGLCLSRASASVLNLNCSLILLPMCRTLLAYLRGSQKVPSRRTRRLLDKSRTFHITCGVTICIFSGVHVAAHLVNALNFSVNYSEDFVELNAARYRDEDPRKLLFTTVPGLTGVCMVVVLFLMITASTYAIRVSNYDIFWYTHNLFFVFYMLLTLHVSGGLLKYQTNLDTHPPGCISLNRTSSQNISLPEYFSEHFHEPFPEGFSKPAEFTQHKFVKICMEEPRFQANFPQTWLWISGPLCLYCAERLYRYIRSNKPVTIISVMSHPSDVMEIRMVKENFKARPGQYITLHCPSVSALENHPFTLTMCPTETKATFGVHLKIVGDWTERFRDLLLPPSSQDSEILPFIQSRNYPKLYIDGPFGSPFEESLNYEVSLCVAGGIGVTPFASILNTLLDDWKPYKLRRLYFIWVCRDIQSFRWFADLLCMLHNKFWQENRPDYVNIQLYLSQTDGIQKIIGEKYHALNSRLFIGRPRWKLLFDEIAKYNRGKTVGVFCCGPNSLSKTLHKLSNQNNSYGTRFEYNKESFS
T1 sequence (P13498 1-195 partner): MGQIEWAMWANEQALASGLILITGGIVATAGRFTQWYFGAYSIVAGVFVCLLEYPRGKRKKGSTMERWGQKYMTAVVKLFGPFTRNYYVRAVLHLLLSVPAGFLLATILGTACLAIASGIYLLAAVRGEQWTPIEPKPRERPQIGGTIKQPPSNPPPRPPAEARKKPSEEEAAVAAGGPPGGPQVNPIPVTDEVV
Put plainly: Cell free membrane based in vitro NOX4 assay: H2O2 production by membranes expressing human NOX4, measured with Amplex Red. The assay is classed as biochemical. The conditions noted are these: for inhibition at 1 µM: 1.0 μM compound, read-out: Percentage inhibition at 1.0 μM; for inhibition at 10 µM: 10.0 μM compound, read-out: Percentage inhibition at 10.0 μM; for pIC50: class symbols. The essentials:
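IC50 came from concentration-response curves fitted as % of the inhibitor-free maximum. H2O2 formation was monitored for 10 min via Amplex Red/HRP fluorescence (544/590 nm) after NADPH start. Membranes from a stable hNOX4/HEK line had 20 min exposure to inhibitor beforehand at pH 7.4.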

A word on the inhibition: it is the drop in the measured response relative to a control, in per cent. Usually pIC50 stands for −log10 of the IC50, conventionally taken in molar units. Take `COCCOc1ccc(-c2[nH]c3c(c(C)nn3C)c(=O)c2O)c(Cl)c1` [Example 65, 6-(2-Chloro-4-(2-methoxyethoxy)phenyl)-5-hydroxy-1,3-dimethyl-1H-pyrazolo[3,4-b]pyridin-4(7H)-one]: the inhibition at 1 µM worked out at 74.7%, the inhibition at 10 µM came to 63.1% and the pIC50 was less than 6.82.
As to `COCCOc1ccc(-c2[nH]c3c(c(C(F)(F)F)nn3C)c(=O)c2O)c(F)c1` [Example 66, 6-(2-Fluoro-4-(2-methoxyethoxy)phenyl)-5-hydroxy-1-methyl-3-(trifluoromethyl)-1H-pyrazolo[3,4-b]pyridin-4(7H)-one], the inhibition at 1 µM is 100%, the inhibition at 10 µM came to 100% and the pIC50 was less than 6.82.
Take `COc1cc(F)c(-c2[nH]c3c(c(C)nn3C)c(=O)c2O)c(F)c1` [Example 67, 6-(2,6-Difluoro-4-methoxyphenyl)-5-hydroxy-1,3-dimethyl-1H-pyrazolo[3,4-b]pyridin-4(7H)-one]: the inhibition at 1 µM is 87.1%, the inhibition at 10 µM was found to be 85.7% and the negative logarithm of the IC50 (pIC50) is 7.00 to 7.30.
In the case of `CCn1nc(C)c2c(=O)c(O)c(-c3c(F)cccc3F)[nH]c21` [Example 68, 6-(2,6-Difluorophenyl)-1-ethyl-5-hydroxy-3-methyl-1H-pyrazolo[3,4-b]pyridin-4(7H)-one], the inhibition at 1 µM amounted to 84.3%, the inhibition at 10 µM turned out to be 80.3% and the pIC50 is 7.00 to 7.30.
With `CCn1nc(C)c2c(=O)c(O)c(-c3ccc(OC)cc3F)[nH]c21` [Example 69, 1-Ethyl-6-(2-fluoro-4-methoxyphenyl)-5-hydroxy-3-methyl-1H-pyrazolo[3,4-b]pyridin-4(7H)-one], the inhibition at 1 µM was 67.2% and the pIC50 was less than 6.82.
On to `COc1ccc(-c2[nH]c3c(c(C)nn3CC(F)(F)F)c(=O)c2O)c(F)c1` [Example 70, 6-(2-Fluoro-4-methoxyphenyl)-5-hydroxy-3-methyl-1-(2,2,2-trifluoroethyl)-1H-pyrazolo[3,4-b]pyridin-4(7H)-one], for which the inhibition at 1 µM came out at 97.5%, the inhibition at 10 µM was 98.4% and the negative-log IC50 (pIC50) was less than 6.82.
As for `CCc1nn(C)c2[nH]c(-c3c(F)cccc3F)c(O)c(=O)c12` [Example 71, 6-(2,6-Difluorophenyl)-3-ethyl-5-hydroxy-1-methyl-1H-pyrazolo[3,4-b]pyridin-4(7H)-one], the inhibition at 1 µM stood at 81.5%, the inhibition at 10 µM was found to be 79.3% and the pIC50 is more than 7.30.
With `CCc1nn(C)c2[nH]c(-c3ccc(OC)cc3F)c(O)c(=O)c12` [Example 72, 3-Ethyl-6-(2-fluoro-4-methoxyphenyl)-5-hydroxy-1-methyl-1H-pyrazolo[3,4-b]pyridin-4(7H)-one], the inhibition at 1 µM is 82.2% and the negative-log IC50 (pIC50) was 6.82 to 7.00.
Turning to `CCc1nn(C)c2[nH]c(-c3ccc(OC)cc3Cl)c(O)c(=O)c12` [Example 73, 6-(2-Chloro-4-methoxyphenyl)-3-ethyl-5-hydroxy-1-methyl-1H-pyrazolo[3,4-b]pyridin-4(7H)-one], the inhibition at 1 µM stood at 79.8%, the inhibition at 10 µM stood at 73.1% and the pIC50 was 7.00 to 7.30.
In the case of `Cc1nn(C(C)C)c2[nH]c(-c3c(F)cccc3F)c(O)c(=O)c12` [Example 74, 6-(2,6-Difluorophenyl)-5-hydroxy-1-isopropyl-3-methyl-1H-pyrazolo[3,4-b]pyridin-4(7H)-one], the inhibition at 1 µM is 91.1%, the inhibition at 10 µM is 90.3% and the negative-log IC50 (pIC50) is 7.00 to 7.30.
For `CC(C)c1c2c(=O)c(O)c(-c3ccccc3Cl)[nH]c2nn1C` [Example 75, 6-(2-Chlorophenyl)-5-hydroxy-3-isopropyl-2-methyl-2H-pyrazolo[3,4-b]pyridin-4(7H)-one], the inhibition at 1 µM was found to be 1.59% and the inhibition at 10 µM is 12.5%.
On to `Cc1nn(Cc2ccccc2)c2[nH]c(-c3c(F)cccc3F)c(O)c(=O)c12` [Example 76, 1-Benzyl-6-(2,6-difluorophenyl)-5-hydroxy-3-methyl-1H-pyrazolo[3,4-b]pyridin-4(7H)-one], for which the inhibition at 1 µM was found to be 95%, the inhibition at 10 µM was determined as 93.5% and the negative logarithm of the IC50 (pIC50) is more than 7.30.
Regarding `COc1ccc(-c2[nH]c3c(c(C)nn3Cc3ccccc3)c(=O)c2O)c(F)c1` [Example 77, 1-Benzyl-6-(2-fluoro-4-methoxyphenyl)-5-hydroxy-3-methyl-1H-pyrazolo[3,4-b]pyridin-4(7H)-one], the inhibition at 1 µM worked out at 88.9%, the inhibition at 10 µM was determined as 72.1% and the pIC50 is 6.82 to 7.00.
Turning to `NC(=O)c1nsc2c(=O)c(O)c(-c3ccccc3Cl)[nH]c12` [Example 78, 5-(2-Chlorophenyl)-6-hydroxy-7-oxo-4,7-dihydroisothiazolo[4,5-b]pyridine-3-carboxamide], the inhibition at 1 µM was 55.3%, the inhibition at 10 µM turned out to be 89.3% and the pIC50 is less than 6.82.
Take `CCCn1nc(C)c2c(=O)c(O)c(-c3c(F)cccc3F)[nH]c21` [Example 79, 6-(2,6-Difluorophenyl)-5-hydroxy-3-methyl-1-propyl-1H-pyrazolo[3,4-b]pyridin-4(7H)-one]: the inhibition at 1 µM is 78.4%, the inhibition at 10 µM was 81.6% and the pIC50 is 6.82 to 7.00.
With `Cc1nn(CCN(C)C)c2[nH]c(-c3ccccc3Cl)c(O)c(=O)c12` [Example 80, 6-(2-Chlorophenyl)-1-(2-(dimethylamino)ethyl)-5-hydroxy-3-methyl-1H-pyrazolo[3,4-b]pyridin-4(7H)-one], the inhibition at 1 µM worked out at 94%, the inhibition at 10 µM amounted to 97.5% and the negative-log IC50 (pIC50) is 7.00 to 7.30.
Consider `CCn1nc(C)c2c(=O)c(O)c(-c3cc(F)ccc3F)[nH]c21` [Example 81, 6-(2,5-Difluorophenyl)-1-ethyl-5-hydroxy-3-methyl-1H-pyrazolo[3,4-b]pyridin-4(7H)-one], for which the inhibition at 1 µM amounted to 93.3%, the inhibition at 10 µM is 81.5% and the pIC50 is less than 6.82.
In the case of `CCCn1nc(C)c2c(=O)c(O)c(-c3ccc(OC)cc3F)[nH]c21` [Example 82, 6-(2-Fluoro-4-methoxyphenyl)-5-hydroxy-3-methyl-1-propyl-1H-pyrazolo[3,4-b]pyridin-4(7H)-one], the inhibition at 1 µM was determined as 87.5% and the negative-log IC50 (pIC50) was 7.00 to 7.30.
As for `Cc1nn(C)c2c(=O)c(O)c(-c3ccccc3Cl)[nH]c12` [Example 83, 5-(2-Chlorophenyl)-6-hydroxy-1,3-dimethyl-1H-pyrazolo[4,3-b]pyridin-7(4H)-one], the inhibition at 1 µM stood at 74.4%, the inhibition at 10 µM stood at 99% and the negative logarithm of the IC50 (pIC50) is less than 6.82.
Turning to `Cc1nn(Cc2ccc(F)cc2)c2[nH]c(-c3c(F)cccc3F)c(O)c(=O)c12` [Example 84, 6-(2,6-Difluorophenyl)-1-(4-fluorobenzyl)-5-hydroxy-3-methyl-1H-pyrazolo[3,4-b]pyridin-4(7H)-one], the inhibition at 1 µM was 80.2%, the inhibition at 10 µM was found to be 88.6% and the negative logarithm of the IC50 (pIC50) is less than 6.82.
Take `Cn1nc(C(F)F)c2c(=O)c(O)c(-c3ccccc3Cl)[nH]c21` [Example 85, 6-(2-Chlorophenyl)-3-(difluoromethyl)-5-hydroxy-1-methyl-1H-pyrazolo[3,4-b]pyridin-4(7H)-one]: the inhibition at 1 µM came out at 72.5%, the inhibition at 10 µM was determined as 88% and the pIC50 was less than 6.82.
For `Cn1nc(C(F)F)c2c(=O)c(O)c(-c3c(F)cccc3F)[nH]c21` [Example 86, 3-(Difluoromethyl)-6-(2,6-difluorophenyl)-5-hydroxy-1-methyl-1H-pyrazolo[3,4-b]pyridin-4(7H)-one], the inhibition at 1 µM turned out to be 74.5%, the inhibition at 10 µM is 89.8% and the negative logarithm of the IC50 (pIC50) was less than 6.82.
As for `Cc1nn(C2CC2)c2[nH]c(-c3c(F)cccc3F)c(O)c(=O)c12` [Example 87, 1-Cyclopropyl-6-(2,6-difluorophenyl)-5-hydroxy-3-methyl-1H-pyrazolo[3,4-b]pyridin-4(7H)-one], the inhibition at 1 µM is 78.2%, the inhibition at 10 µM was found to be 88.5% and the negative logarithm of the IC50 (pIC50) is 6.82 to 7.00.
On to `Cc1nn(CCN2CCOCC2)c2[nH]c(-c3c(F)cccc3F)c(O)c(=O)c12` [Example 88, 6-(2,6-Difluorophenyl)-5-hydroxy-3-methyl-1-(2-morpholinoethyl)-1H-pyrazolo[3,4-b]pyridin-4(7H)-one], for which the inhibition at 1 µM is 100%, the inhibition at 10 µM was found to be 100% and the negative-log IC50 (pIC50) was 7.00 to 7.30.
For `Cc1nn(CCN(C)C)c2[nH]c(-c3c(F)cccc3F)c(O)c(=O)c12` [Example 89, 6-(2,6-Difluorophenyl)-1-(2-(dimethylamino)ethyl)-5-hydroxy-3-methyl-1H-pyrazolo[3,4-b]pyridin-4(7H)-one], the inhibition at 1 µM was found to be 100%, the inhibition at 10 µM is 100% and the pIC50 was 7.00 to 7.30.
